Test results: PubChem BioAssay (NCI)
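Method: 48-hour compound exposure of cells in 96-well plates, five concentrations, linear interpolation of endpoints. The concentration for 50% growth inhibition is given as GI50. TGI denotes the concentration required for complete inhibition of growth.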

How the values were obtained:
Assay in all cases: DTP human tumour cell line panel, 48 h
[1] = system: SF-268 CNS
[2] = system: NCI-H522 lung
[3] = system: HCT-116 colon
[4] = system: PC-3 prostate
[5] = system: OVCAR-8 ovarian
[6] = system: HT29 colon
[7] = system: ACHN renal
[8] = system: U251 CNS
[9] = system: SF-295 CNS
[10] = system: SR leukemia
[11] = system: SK-OV-3 ovarian
[12] = system: OVCAR-3 ovarian
[13] = system: MDA-MB-435
[14] = system: BT-549 breast
[15] = system: SNB-75 CNS
[16] = system: RPMI-8226 leukemia
[17] = system: MOLT-4 leukemia
[18] = system: HCT-15 colon
[19] = system: LOX IMVI melanoma
[20] = system: MDA-MB-231 breast
[21] = system: HOP-92 NSCLC
[22] = system: UO-31 renal
[23] = system: DU-145 prostate
[24] = system: HL-60(TB) leukemia
[25] = system: NCI-H23 lung
[26] = system: HS 578T breast
[27] = system: EKVX NSCLC
[28] = system: SW-620 colon
[29] = system: T-47D breast
[30] = system: SF-539 CNS
[31] = system: OVCAR-5 ovarian
[32] = system: CCRF-CEM leukemia
[33] = system: K-562 leukemia
[34] = system: SK-MEL-28 melanoma
[35] = system: UACC-257 melanoma
[36] = system: 786-0 renal
[37] = system: COLO 205 colon
[38] = system: IGROV1 ovarian
[39] = system: SNB-19 CNS
[40] = system: RXF 393 renal
[41] = system: KM12 colon
[42] = system: MALME-3M melanoma
[43] = system: NCI-H460 lung
[44] = system: SK-MEL-2 melanoma
[45] = system: M14 melanoma
[46] = system: SK-MEL-5 melanoma
[47] = system: UACC-62 melanoma
[48] = system: OVCAR-4 ovarian
[49] = system: A549 NSCLC
[50] = system: MCF7 breast
[51] = system: NCI-H226 lung
[52] = system: HCC-2998 colon
[53] = system: SN12C renal
[54] = system: A498 renal
[55] = system: TK-10 renal
[56] = system: NCI/ADR-RES ovarian
[57] = system: CAKI-1 renal
[58] = system: HOP-62 NSCLC

C=CC(=O)N1CC[C@@H](Oc2nc(Nc3ccc(N4CCC(N5CCN(C)CC5)CC4)cc3)c(C(N)=O)nc2CC)C1
GI50 [1]: > 100 µM
TGI [1]: > 100 µM
GI50 [2]: > 100 µM
TGI [2]: > 100 µM
GI50 [3]: > 100 µM
TGI [3]: > 100 µM
GI50 [4]: > 100 µM
TGI [4]: > 100 µM
GI50 [5]: > 100 µM
TGI [5]: > 100 µM
GI50 [6]: > 100 µM
TGI [6]: > 100 µM
GI50 [7]: > 100 µM
TGI [7]: > 100 µM
GI50 [8]: > 100 µM
TGI [8]: > 100 µM
GI50 [9]: > 100 µM
TGI [9]: > 100 µM
GI50 [10]: > 100 µM
TGI [10]: > 100 µM
GI50 [11]: > 100 µM
TGI [11]: > 100 µM
GI50 [12]: > 100 µM
TGI [12]: > 100 µM
GI50 [13]: > 100 µM
TGI [13]: > 100 µM
GI50 [14]: > 100 µM
TGI [14]: > 100 µM
GI50 [15]: > 100 µM
TGI [15]: > 100 µM
GI50 [16]: > 100 µM
TGI [16]: > 100 µM
GI50 [17]: > 100 µM
TGI [17]: > 100 µM
GI50 [18]: > 100 µM
TGI [18]: > 100 µM
GI50 [19]: > 100 µM
TGI [19]: > 100 µM
GI50 [20]: > 100 µM
TGI [20]: > 100 µM
GI50 [21]: > 100 µM
TGI [21]: > 100 µM
GI50 [22]: > 100 µM
TGI [22]: > 100 µM
GI50 [23]: > 100 µM
TGI [23]: > 100 µM
GI50 [24]: > 100 µM
TGI [24]: > 100 µM
GI50 [25]: > 100 µM
TGI [25]: > 100 µM
GI50 [26]: > 100 µM
TGI [26]: > 100 µM
GI50 [27]: > 100 µM
TGI [27]: > 100 µM
GI50 [28]: > 100 µM
TGI [28]: > 100 µM
GI50 [29]: > 100 µM
TGI [29]: > 100 µM
GI50 [30]: > 100 µM
TGI [30]: > 100 µM
GI50 [31]: > 100 µM
TGI [31]: > 100 µM
GI50 [32]: > 100 µM
TGI [32]: > 100 µM
GI50 [33]: > 100 µM
TGI [33]: > 100 µM
GI50 [34]: > 100 µM
TGI [34]: > 100 µM
GI50 [35]: > 100 µM
TGI [35]: > 100 µM
GI50 [36]: > 100 µM
TGI [36]: > 100 µM
GI50 [37]: > 100 µM
TGI [37]: > 100 µM
GI50 [38]: > 100 µM
TGI [38]: > 100 µM
GI50 [39]: > 100 µM
TGI [39]: > 100 µM
GI50 [40]: > 100 µM
TGI [40]: > 100 µM
GI50 [41]: > 100 µM
TGI [41]: > 100 µM
GI50 [42]: > 100 µM
TGI [42]: > 100 µM
GI50 [43]: > 100 µM
TGI [43]: > 100 µM
GI50 [44]: > 100 µM
TGI [44]: > 100 µM
GI50 [45]: > 100 µM
TGI [45]: > 100 µM
GI50 [46]: > 100 µM
TGI [46]: > 100 µM
GI50 [47]: > 100 µM
TGI [47]: > 100 µM
GI50 [48]: > 100 µM
TGI [48]: > 100 µM
GI50 [49]: > 100 µM
TGI [49]: > 100 µM
GI50 [50]: > 100 µM
TGI [50]: > 100 µM
GI50 [51]: > 100 µM
TGI [51]: > 100 µM
GI50 [52]: > 100 µM
TGI [52]: > 100 µM
GI50 [53]: > 100 µM
TGI [53]: > 100 µM
GI50 [54]: > 100 µM
TGI [54]: > 100 µM
GI50 [55]: > 100 µM
TGI [55]: > 100 µM
GI50 [56]: > 100 µM
TGI [56]: > 100 µM

N#Cc1c(C#N)c(-c2ccco2)n(/N=C/c2ccco2)c1N
TGI [1]: > 100 µM
TGI [57]: > 100 µM
TGI [2]: > 100 µM
TGI [3]: > 100 µM
TGI [4]: > 100 µM
TGI [5]: 66.2 µM
TGI [6]: > 100 µM
TGI [7]: > 100 µM
TGI [8]: 60.3 µM
TGI [9]: > 100 µM
TGI [10]: > 100 µM
TGI [11]: > 100 µM
TGI [12]: > 100 µM
TGI [13]: > 100 µM
TGI [14]: > 100 µM
TGI [15]: 40 µM
TGI [16]: > 100 µM
TGI [17]: > 100 µM
TGI [18]: > 100 µM
TGI [19]: > 100 µM
TGI [20]: 36.3 µM
TGI [21]: 61.2 µM
TGI [22]: > 100 µM
TGI [23]: > 100 µM
TGI [58]: > 100 µM
TGI [24]: > 100 µM
TGI [25]: > 100 µM
TGI [26]: 71.2 µM
TGI [27]: > 100 µM
TGI [28]: > 100 µM
TGI [29]: > 100 µM
TGI [30]: > 100 µM
TGI [31]: > 100 µM
TGI [32]: > 100 µM
TGI [33]: > 100 µM
TGI [35]: > 100 µM
TGI [36]: > 100 µM
TGI [37]: > 100 µM
TGI [38]: > 100 µM
TGI [39]: 67.5 µM
TGI [40]: 89.1 µM
TGI [41]: > 100 µM
TGI [42]: > 100 µM
TGI [43]: > 100 µM
TGI [44]: > 100 µM
TGI [45]: > 100 µM
TGI [46]: > 100 µM
TGI [47]: > 100 µM
TGI [48]: > 100 µM
TGI [49]: > 100 µM
TGI [50]: > 100 µM
TGI [51]: 66.2 µM
TGI [52]: > 100 µM
TGI [53]: > 100 µM
TGI [54]: > 100 µM
TGI [55]: > 100 µM
TGI [56]: > 100 µM
